Key:
[1] = test system: purified recombinant human EGFR protein / BTK; assay: BTK inhibition selectivity compared with EGFR kinase inhibitory activity (in vitro); format: biochemical; settings: EGFR assay ATP 1.5 μM
Procedure: 1) Measurement of BTK Inhibitory Activity
2) Measurement of EGFR Inhibitory Activity
Therefore, a biotinated peptide (biotin-[…]) was produced by referring to the amino acid sequence of the peptide. The purified recombinant human EGFR protein used in the test was purchased from Carna Biosciences, Inc.
With regard to the measurement of the inhibitory activity of the compounds, firstly, the compounds of the present invention were diluted stepwise with dimethyl sulfoxide (DMSO). […] The reaction was terminated by adding EDTA thereto in order to obtain a final concentration of 24 mM. Subsequently, a detection liquid containing Eu-labeled anti-phosphorylated tyrosine antibody PT66 (PerkinElmer, Inc.) and […] APC-SA (PerkinElmer, Inc.) was added thereto, and the system was left to stand for 2 hours or longer at room temperature.
3) BTK Inhibition Selectivity

[2] = target: purified recombinant human BTK protein (Homo sapiens (Human), UniProt Q06187); assay: Measurement of BTK inhibitory activity (in vitro); format: biochemical; settings: FL-PEPTIDE 2 substrate 1 μM, ATP 45 μM, 40 minutes at 25° C.
purified recombinant human BTK protein, sequence (Q06187 whole entry): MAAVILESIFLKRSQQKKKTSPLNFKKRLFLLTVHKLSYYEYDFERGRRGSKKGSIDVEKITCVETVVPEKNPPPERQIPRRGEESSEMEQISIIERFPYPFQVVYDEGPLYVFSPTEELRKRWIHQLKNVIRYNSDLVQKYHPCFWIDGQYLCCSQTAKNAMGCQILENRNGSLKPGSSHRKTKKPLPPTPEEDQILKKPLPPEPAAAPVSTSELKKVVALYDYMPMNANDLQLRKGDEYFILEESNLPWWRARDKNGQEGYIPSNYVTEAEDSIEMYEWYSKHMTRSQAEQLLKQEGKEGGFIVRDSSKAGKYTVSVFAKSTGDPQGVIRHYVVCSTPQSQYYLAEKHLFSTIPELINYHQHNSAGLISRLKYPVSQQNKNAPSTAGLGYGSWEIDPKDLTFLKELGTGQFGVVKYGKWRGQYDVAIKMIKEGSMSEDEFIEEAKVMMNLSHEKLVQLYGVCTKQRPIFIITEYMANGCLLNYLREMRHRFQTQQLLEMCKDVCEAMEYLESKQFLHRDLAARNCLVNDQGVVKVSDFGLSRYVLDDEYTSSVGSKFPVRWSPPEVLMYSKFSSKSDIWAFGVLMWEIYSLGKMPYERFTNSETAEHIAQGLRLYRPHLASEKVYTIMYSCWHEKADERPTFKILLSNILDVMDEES
How it was run: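 Recombinant human BTK with FL-PEPTIDE 2 substrate (1 μM), 45 μM ATP and 10 mM MgCl2 in 20 mM HEPES pH 7.5, 2 mM DTT, 0.01% Triton X-100, 5% DMSO; 40 min at 25° C. Reaction stopped with 30 mM EDTA. Phosphorylated and unphosphorylated peptide separated and detected by microchannel capillary electrophoresis.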

[3] = test system: A431 cells / TMD8 cells; assay: Proliferation inhibitory activity against cell lines expressing BTK and EGFR (in vitro), comparison of selectivity; format: cell-based, human; settings: ratio from GI50 (nM), 3 days culture, CELLTITER GLO
How it was run: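 BTK-expressing TMD8 DLBCL cells (RPMI1640/10% FBS) and EGFR-overexpressing A431 epidermoid carcinoma cells (DMEM/10% FBS) cultured 1 day, then exposed to compound (0.2% DMSO final) for 3 days at 37° C. Luminescence read-out; inhibition ratio % = (C−T)/(C−C0)×100, with A431/TMD8 ratio as selectivity index.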

SMILES	EGFR inhibitory activity IC50 value (nM)/BTK inhibitory activity IC50 value (nM) [1]	IC50 [2] [nM]	A431 cell proliferation inhibition ratio/TMD8 cell proliferation inhibitio ratio [3]
CCN(C)C/C=C/C(=O)N1CCC[C@@H](n2nc(C(=O)Nc3nc4cc(Cl)ccc4o3)c3c(N)ncnc32)C1 [Example 16, (R,E)-4-amino-N-(5-chlorobenzo[d]oxazol-2-yl)-1-(1-(4-(ethyl(methyl)amino)but-2-enoyl)piperidin-3-yl)-1H-pyrazolo[3,4-d]pyrimidine-3-carboxamide]	158.1	0.733	>16313.2
CCN(CC)C/C=C/C(=O)N1CCC[C@@H](n2nc(C(=O)Nc3nc4cc(Cl)ccc4o3)c3c(N)ncnc32)C1 [Example 17, (R,E)-4-amino-N-(5-chlorobenzo[d]oxazol-2-yl)-1-(1-(4-(diethylamino)but-2-enoyl)piperidin-3-yl)-1H-pyrazolo[3,4-d]pyrimidine-3-carboxamide]	157.2	0.811	>12345.7
Nc1ncnc2c1c(C(=O)Nc1nc3cc(Cl)ccc3o1)nn2[C@@H]1CCCN(C(=O)/C=C/CN2CCCCC2)C1 [Example 20, (R,E)-4-amino-N-(5-chlorobenzo[d]oxazol-2-yl)-1-(1-(4-(piperidin-1-yl)but-2-enoyl)piperidin-3-yl)-1H-pyrazolo[3,4-d]pyrimidine-3-carboxamide]	138.2	0.801	>19120.5
CN(C)C/C=C/C(=O)N1CC[C@@H](n2nc(C(=O)Nc3nc4cc(Cl)ccc4o3)c3c(N)ncnc32)C1 [Example 32, (R,E)-4-amino-N-(5-chlorobenzo[d]oxazol-2-yl)-1-(1-(4-(dimethylamino)but-2-enoyl)pyrrolidin-3-yl)-1H-pyrazolo[3,4-d]pyrimidine-3-carboxamide]	43.1	0.634	>11123.5
CC(C)N(C)C/C=C/C(=O)N1CC[C@@H](n2nc(C(=O)Nc3nc4cc(Cl)ccc4o3)c3c(N)ncnc32)C1 [Example 35, (R,E)-4-amino-N-(5-chlorobenzo[d]oxazol-2-yl)-1-(1-(4-(isopropyl(methyl)amino)but-2-enoyl)pyrrolidin-3-yl)-1H-pyrazolo[3,4-d]pyrimidine-3-carboxamide]	35.1	0.792	>18691.6
C=CC(=O)N1CC[C@@H](n2nc(C(=O)Nc3nc4cc(CCOC)ccc4o3)c3c(N)ncnc32)C1 [Example 40, (R)-1-(1-acryloylpyrrolidin-3-yl)-4-amino-N-(5-(2-methoxyethyl)benzo[d]oxazol-2-yl)-1H-pyrazolo[3,4-d]pyrimidine-3-carboxamide]	10.0	2.09	>3159.6
C=CC(=O)N1CCC(n2nc(C(=O)Nc3nc4ccccc4o3)c3c(N)ncnc32)C1 (stereo not shown) [Example 82, 1-(1-acryloylpyrrolidin-3-yl)-4-amino-N-(benzo[d]oxazol-2-yl)-1H-pyrazolo[3,4-d]pyrimidine-3-carboxamide]	10.9		8143.0
C=CC(=O)N1CCC(n2nc(C(=O)Nc3nc4cc(F)ccc4o3)c3c(N)ncnc32)C1 (stereo not shown) [Example 83, 1-(1-acryloylpyrrolidin-3-yl)-4-amino-N-(5-fluorobenzo[d]oxazol-2-yl)-1H-pyrazolo[3,4-d]pyrimidine-3-carboxamide]	39.6		>18797.0

Continued by falling IC50 [2], values first:

EGFR inhibitory activity IC50 value (nM)/BTK inhibitory activity IC50 value (nM) [1]	IC50 [2] [nM]	SMILES	A431 cell proliferation inhibition ratio/TMD8 cell proliferation inhibitio ratio [3]
28.4	1.37	C=CC(=O)N1CCC[C@@H](n2nc(C(=O)Nc3nc4ncccc4o3)c3c(N)ncnc32)C1 [Example 9, (R)-1-(1-acryloylpiperidin-3-yl)-4-amino-N-(oxazolo[4,5-b]pyridin-2-yl)-1H-pyrazolo[3,4-d]pyrimidine-3-carboxamide]	8196.7
173.7	1.17	C/C=C/C(=O)N1CC[C@@H](n2nc(C(=O)Nc3nc4cc(Cl)ccc4o3)c3c(N)ncnc32)C1 [Example 25, (R,E)-4-amino-N-(5-chlorobenzo[d]oxazol-2-yl)-1-(1-(but-2-enoyl)pyrrolidin-3-yl)-1H-pyrazolo[3,4-d]pyrimidine-3-carboxamide]	2793.0
37.5	1.12	C=CC(=O)N1CC[C@@H](n2nc(C(=O)Nc3nc4cc(C#N)ccc4o3)c3c(N)ncnc32)C1 [Example 39, (R)-1-(1-acryloylpyrrolidin-3-yl)-4-amino-N-(5-cyanobenzo[d]oxazol-2-yl)-1H-pyrazolo[3,4-d]pyrimidine-3-carboxamide]	>3510.0
79.3	0.79	CCN(CC)C/C=C/C(=O)N1CC[C@@H](n2nc(C(=O)Nc3nc4cc(Cl)ccc4o3)c3c(N)ncnc32)C1 [Example 34, (R,E)-4-amino-N-(5-chlorobenzo[d]oxazol-2-yl)-1-(1-(4-(diethylamino)but-2-enoyl)pyrrolidin-3-yl)-1H-pyrazolo[3,4-d]pyrimidine-3-carboxamide]	>22471.9
121.3	0.788	CC(C)N(C)C/C=C/C(=O)N1CCC[C@@H](n2nc(C(=O)Nc3nc4cc(Cl)ccc4o3)c3c(N)ncnc32)C1 [Example 18, (R,E)-4-amino-N-(5-chlorobenzo[d]oxazol-2-yl)-1-(1-(4-(isopropyl(methyl)amino)but-2-enoyl)piperidin-3-yl)-1H-pyrazolo[3,4-d]pyrimidine-3-carboxamide]	>15625.0
145.0	0.786	CN(C)C/C=C/C(=O)N1CCC[C@@H](n2nc(C(=O)Nc3nc4cc(Cl)ccc4o3)c3c(N)ncnc32)C1 [Example 15, (R,E)-4-amino-N-(5-chlorobenzo[d]oxazol-2-yl)-1-(1-(4-(dimethylamino)but-2-enoyl)piperidin-3-yl)-1H-pyrazolo[3,4-d]pyrimidine-3-carboxamide]	16442.0
144.8	0.69	Nc1ncnc2c1c(C(=O)Nc1nc3cc(Cl)ccc3o1)nn2[C@@H]1CCCN(C(=O)/C=C/CN2CCCC2)C1 [Example 19, (R,E)-4-amino-N-(5-chlorobenzo[d]oxazol-2-yl)-1-(1-(4-(pyrrolidin-1-yl)but-2-enoyl)piperidin-3-yl)-1H-pyrazolo[3,4-d]pyrimidine-3-carboxamide]	>17825.3
21.3	0.566	C=CC(=O)N1CC[C@@H](n2nc(C(=O)Nc3nc4cc(F)ccc4o3)c3c(N)ncnc32)C1 [Example 30, (R)-1-(1-acryloylpyrrolidin-3-yl)-4-amino-N-(5-fluorobenzo[d]oxazol-2-yl)-1H-pyrazolo[3,4-d]pyrimidine-3-carboxamide]	5164.3
